Measurements as given in PubChem BioAssay AID1259407 (Chemical Carcinogenesis Research Information System (CCRIS), 2018).
Active and inactive are the calls of the source. The rule behind the calls is not given here.

System: CCRIS mutagenicity, Ames/micronucleus/aberration tests
Assay: CCRIS mutagenicity studies
[1] = Test System: AMES SALMONELLA TYPHIMURIUM, Strain/Indicator: TA98, Metabolic Activation: NONE, Method: PREINCUBATION
[2] = Test System: AMES SALMONELLA TYPHIMURIUM, Strain/Indicator: TA100, Metabolic Activation: NONE, Method: PREINCUBATION
[3] = Test System: AMES SALMONELLA TYPHIMURIUM, Strain/Indicator: TA1535, Metabolic Activation: NONE, Method: PREINCUBATION
[4] = Test System: AMES SALMONELLA TYPHIMURIUM, Strain/Indicator: TA1537, Metabolic Activation: NONE, Method: PREINCUBATION
[5] = Test System: AMES SALMONELLA TYPHIMURIUM, Strain/Indicator: TA100, Metabolic Activation: RAT, LIVER, S-9, PCB, Method: PREINCUBATION
[6] = Test System: AMES SALMONELLA TYPHIMURIUM, Strain/Indicator: TA100, Metabolic Activation: NONE, Method: STANDARD PLATE

C/C(C=O)=C\c1ccccc1
mutagenic call (Test System: AMES SALMONELLA TYPHIMURIUM, Strain/Indicator: TA98, Metabolic Activation: HAMSTER, LIVER, S-9, AROCLOR 1254 (10%), Method: PREINCUBATION): inactive; negative | mutagenic call [1]: inactive; negative | mutagenic call (Test System: AMES SALMONELLA TYPHIMURIUM, Strain/Indicator: TA98, Metabolic Activation: RAT, LIVER, S-9, AROCLOR 1254 (10%), Method: PREINCUBATION): inactive; negative | mutagenic call (Test System: AMES SALMONELLA TYPHIMURIUM, Strain/Indicator: TA100, Metabolic Activation: HAMSTER, LIVER, S-9, AROCLOR 1254 (10%), Method: PREINCUBATION): inactive; negative | mutagenic call [2]: inactive; negative | mutagenic call (Test System: AMES SALMONELLA TYPHIMURIUM, Strain/Indicator: TA100, Metabolic Activation: RAT LIVER S-9, AROCLOR 1254, Method: PREINCUBATION): inactive; negative | mutagenic call (Test System: AMES SALMONELLA TYPHIMURIUM, Strain/Indicator: TA100, Metabolic Activation: RAT, LIVER, S-9, AROCLOR 1254 (10%), Method: PREINCUBATION): inactive; negative | mutagenic call (Test System: AMES SALMONELLA TYPHIMURIUM, Strain/Indicator: TA102, Metabolic Activation: MOUSE LIVER S-9, AROCLOR 1254, Method: PREINCUBATION): inactive; negative | mutagenic call (Test System: AMES SALMONELLA TYPHIMURIUM, Strain/Indicator: TA102, Metabolic Activation: NONE, Method: PREINCUBATION): inactive; negative | mutagenic call (Test System: AMES SALMONELLA TYPHIMURIUM, Strain/Indicator: TA102, Metabolic Activation: RAT LIVER S-9, AROCLOR 1254, Method: PREINCUBATION): inactive; negative | mutagenic call (Test System: AMES SALMONELLA TYPHIMURIUM, Strain/Indicator: TA104, Metabolic Activation: MOUSE LIVER S-9, AROCLOR 1254, Method: PREINCUBATION): inactive; negative | mutagenic call (Test System: AMES SALMONELLA TYPHIMURIUM, Strain/Indicator: TA104, Metabolic Activation: NONE, Method: PREINCUBATION): inactive; negative | mutagenic call (Test System: AMES SALMONELLA TYPHIMURIUM, Strain/Indicator: TA104, Metabolic Activation: RAT LIVER S-9, AROCLOR 1254, Method: PREINCUBATION): inactive; negative | mutagenic call (Test System: AMES SALMONELLA TYPHIMURIUM, Strain/Indicator: TA1535, Metabolic Activation: HAMSTER, LIVER, S-9, AROCLOR 1254 (10%), Method: PREINCUBATION): inactive; negative | mutagenic call [3]: inactive; negative | mutagenic call (Test System: AMES SALMONELLA TYPHIMURIUM, Strain/Indicator: TA1535, Metabolic Activation: RAT, LIVER, S-9, AROCLOR 1254 (10%), Method: PREINCUBATION): inactive; negative | mutagenic call (Test System: AMES SALMONELLA TYPHIMURIUM, Strain/Indicator: TA1537, Metabolic Activation: HAMSTER, LIVER, S-9, AROCLOR 1254 (10%), Method: PREINCUBATION): inactive; negative | mutagenic call [4]: inactive; negative | mutagenic call (Test System: AMES SALMONELLA TYPHIMURIUM, Strain/Indicator: TA1537, Metabolic Activation: RAT, LIVER, S-9, AROCLOR 1254 (10%), Method: PREINCUBATION): inactive; negative

Nc1ccc(N=Nc2ccccc2)c(N)n1
mutagenic call (End Point: IN VITRO CHROMOSOMAL ABERRATIONS, Test System: CHINESE HAMSTER OVARY CELLS, Metabolic Activation: NONE): active; positive (ploidy changes) | mutagenic call (End Point: IN VITRO CHROMOSOMAL ABERRATIONS, Test System: CHINESE HAMSTER OVARY CELLS, Metabolic Activation: RAT, LIVER, S-9, AROCLOR 1254): active; positive; authors reported that all doses were toxic, but were scored because of | mutagenic call (Test System: MOUSE LYMPHOMA, Strain/Indicator: L5178Y (TK+/TK-), Metabolic Activation: NONE, Method: SUSPENSION/PLATE): inactive; negative | mutagenic call (Test System: MOUSE LYMPHOMA, Strain/Indicator: L5178Y (TK+/TK-), Metabolic Activation: RAT, LIVER, S-9, AROCLOR 1254, Method: SUSPENSION/PLATE): active; positive | mutagenic call (Test System: UDS RAT HEPATOCYTES, Strain/Indicator: BROMODEOXYURIDINE INCORP, Metabolic Activation: NONE, Method: FLOW CYTOMETRIC ANALYSIS): active; positive | mutagenic call (Test System: UDS RAT HEPATOCYTES, Strain/Indicator: THY INCORP, Metabolic Activation: NONE, Method: AUTORADIOGRAPHY): active; positive

[N-]=[N+]=NCCC(c1ccccc1)c1ccccc1
mutagenic call [5]: active; positive

NNc1ccccc1
mutagenic call (End Point: IN VITRO CHROMOSOMAL ABERRATIONS, Test System: CHL CELLS, Metabolic Activation: NONE): active; positive (structural changes) | mutagenic call (End Point: IN VITRO CHROMOSOMAL ABERRATIONS, Test System: CHL CELLS, Metabolic Activation: RAT, LIVER, S-9, SODIUM PHENOBARBITAL AND 5,6-BENZOFLAVONE): active; positive (structural changes); authors report equivocal results for ploidy chang | mutagenic call [1]: active; positive | mutagenic call (Test System: AMES SALMONELLA TYPHIMURIUM, Strain/Indicator: TA98, Metabolic Activation: RAT LIVER S-9, PHENOBARBITAL AND BETA-NAPHTHOFLAVONE, Method: PREINCUBATION): active; positive | mutagenic call [2]: inactive; negative | mutagenic call [6]: active; positive | mutagenic call (Test System: AMES SALMONELLA TYPHIMURIUM, Strain/Indicator: TA100, Metabolic Activation: RAT KIDNEY, MICROSOMES, Method: STANDARD PLATE): active; positive | mutagenic call (Test System: AMES SALMONELLA TYPHIMURIUM, Strain/Indicator: TA100, Metabolic Activation: RAT LIVER S-9, PHENOBARBITAL AND BETA-NAPHTHOFLAVONE, Method: PREINCUBATION): inactive; negative | mutagenic call (Test System: AMES SALMONELLA TYPHIMURIUM, Strain/Indicator: TA1530, Metabolic Activation: NONE, Method: STANDARD PLATE): active; positive | mutagenic call [3]: inactive; negative | mutagenic call (Test System: AMES SALMONELLA TYPHIMURIUM, Strain/Indicator: TA1535, Metabolic Activation: RAT LIVER S-9, PHENOBARBITAL AND BETA-NAPHTHOFLAVONE, Method: PREINCUBATION): inactive; negative | mutagenic call (Test System: AMES SALMONELLA TYPHIMURIUM, Strain/Indicator: TA1535, Metabolic Activation: RAT, LIVER, S-9, AROCLOR 1254, Method: PREINCUBATION): inactive; negative | mutagenic call [4]: active; positive | mutagenic call (Test System: AMES SALMONELLA TYPHIMURIUM, Strain/Indicator: TA1537, Metabolic Activation: RAT LIVER S-9, PHENOBARBITAL AND BETA-NAPHTHOFLAVONE, Method: PREINCUBATION): active; positive | mutagenic call (Test System: AMES SALMONELLA TYPHIMURIUM, Strain/Indicator: TA1537, Metabolic Activation: RAT, LIVER, S-9, AROCLOR 1254, Method: PREINCUBATION): active; positive | mutagenic call (Test System: AMES SALMONELLA TYPHIMURIUM, Strain/Indicator: TA2638, Metabolic Activation: NONE, Method: STANDARD PLATE): active; positive | mutagenic call (Test System: E. COLI, Strain/Indicator: WP2 (PKM101), Metabolic Activation: NONE, Method: STANDARD PLATE): active; positive | mutagenic call (Test System: E. COLI, Strain/Indicator: WP2 UVRA (PKM101), Metabolic Activation: NONE, Method: STANDARD PLATE): active; positive | mutagenic call (Test System: E.COLI, Strain/Indicator: WP2UVRA, Metabolic Activation: NONE, Method: PREINCUBATION): active; positive | mutagenic call (Test System: E.COLI, Strain/Indicator: WP2UVRA, Metabolic Activation: RAT LIVER S-9, PHENOBARBITAL AND BETA-NAPHTHOFLAVONE, Method: PREINCUBATION): active; positive

COC(=O)[C@H]1O[C@H]1c1ccccc1
mutagenic call [6]: active; positive

[N-]=[N+]=NC[C@@H](O)c1ccccc1
mutagenic call [5]: active; positive
